“Also recorded” adds a separate entry of the source.
Key:
[1] = Pharmacokinetic study, single-dose oral administration of tetrabenazine 25 mg to healthy adult male volunteers: plasma levels of tetrabenazine and DHTBZ isomers; assay type: in vivo, human; settings: for Kel: N=08, unit not given; for status as metabolite of tetrabenazine in humans: single and multiple dose tetrabenazine 25 mg, Tables 1 and 2
Protocol: (§1) A pharmacokinetic study was carried out in healthy adult male volunteers under fasting conditions at a dose of single and multiple oral administration of 25 mg tablets once a day to ascertain the plasma levels of +/−α and +/−β dihydro-tetrabenazine.
Table 1 summarises the pharmacokinetic data obtained following single-dose oral administration of tetrabenazine at a dose level of 25 mg (fasting, N=08).

[2] = target: Chromaffin Granule Monoamine Transporter (Bos taurus, UniProt Q27963); settings: cited from earlier work
Chain of Chromaffin Granule Monoamine Transporter (Q27963 whole entry): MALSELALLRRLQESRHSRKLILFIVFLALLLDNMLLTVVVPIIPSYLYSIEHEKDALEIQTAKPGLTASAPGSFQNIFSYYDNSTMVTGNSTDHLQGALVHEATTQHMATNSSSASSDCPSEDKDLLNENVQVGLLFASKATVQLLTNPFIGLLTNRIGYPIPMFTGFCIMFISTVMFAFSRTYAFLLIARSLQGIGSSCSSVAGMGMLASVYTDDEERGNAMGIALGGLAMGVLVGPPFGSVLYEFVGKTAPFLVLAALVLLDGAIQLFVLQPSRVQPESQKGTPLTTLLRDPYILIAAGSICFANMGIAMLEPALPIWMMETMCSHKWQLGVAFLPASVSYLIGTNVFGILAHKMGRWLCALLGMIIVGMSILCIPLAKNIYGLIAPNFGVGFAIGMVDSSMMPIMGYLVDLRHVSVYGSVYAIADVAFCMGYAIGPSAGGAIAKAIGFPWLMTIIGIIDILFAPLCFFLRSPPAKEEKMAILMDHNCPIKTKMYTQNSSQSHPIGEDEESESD

[3] = tested on: male CD rats; assay: Amphetamine induced locomotor activity and stereotypies in the open field arena; assay type: in vivo, rat; settings: amphetamine at t=30 min; for normalised total distance travelled, compared to vehicle-amphetamine group / normalised total stereotypic behaviour, compared to vehicle-amphetamine group: listed as (+)-β-DHTBZ
Protocol: Resulting locomotor activity was evaluated in 3 min bins and as a total over the testing period. […] Resulting stereotypic activity was evaluated in 3 min bins and as a total over the testing period.

[4] = Pharmacokinetic study, multiple-dose oral administration of tetrabenazine 25 mg once a day to healthy adult male volunteers: plasma levels; assay type: in vivo; settings: multiple-dose oral tetrabenazine 25 mg once a day, fasting, N=07, human plasma
Protocol: as §1
Table 2 summarises the pharmacokinetic data obtained following multiple-dose oral administration of tetrabenazine at a dose level of 25 mg (fasting, N=07).

[5] = rat brain, stereochemistry not disclosed; cited from earlier work
[6] = single-dose oral tetrabenazine 25 mg, fasting
[7] = single-dose oral tetrabenazine 25 mg, fasting, N=08, human plasma

COc1cc2c(cc1OC)C1CC(=O)C(CC(C)C)CN1CC2 (racemic) [Tetrabenazine, 1,3,4,6,7,11b-hexahydro-9,10-dimethoxy-3-(2-methylpropyl)-2H-benzo(a)quinolizin-2-one]
Kel [1, 6]: 0.19

COc1cc2c(cc1OC)[C@H]1C[C@@H](O)[C@H](CC(C)C)CN1CC2 [(+)-α-dihydrotetrabenazine]
more active than the (+)-β-isomer ([2]; earlier findings, as worded): 3- to 4 times | status as metabolite of tetrabenazine in humans [1]: minor metabolites | Kel [1, 6]: 0.17

COc1cc2c(cc1OC)[C@H]1C[C@H](O)[C@H](CC(C)C)CN1CC2 [(+)-β-dihydrotetrabenazine, (S,R,R)-3-isobutyl-9,10-dimethyloxy-1,3,4,5,7,11b-hexahydro-2H-pyrido[2,1-a]isoquinolin-2-ol]
normalised total stereotypic behaviour, compared to vehicle-vehicle group ([3]; 2.5 mg/kg at t=0 min): significantly different | normalised total distance travelled, compared to vehicle-amphetamine group ([3]; 2.5 mg/kg at t=0 min): lower locomotor activity | normalised total stereotypic behaviour, compared to vehicle-amphetamine group ([3]; 2.5 mg/kg at t=0 min): significantly different; also recorded: reduced stereotypic behaviour | normalised total stereotypic behaviour, compared to vehicle-vehicle group ([3]; 5 mg/kg at t=0 min): significantly different | normalised total distance travelled, compared to vehicle-amphetamine group ([3]; 5 mg/kg at t=0 min): lower locomotor activity | normalised total stereotypic behaviour, compared to vehicle-amphetamine group ([3]; 5 mg/kg at t=0 min): significantly different; also recorded: reduced stereotypic behaviour | status as metabolite of tetrabenazine in humans [1]: major metabolites; also recorded: main metabolites | Kel [1, 6]: 0.13

COc1cc2c(cc1OC)[C@@H]1C[C@H](O)[C@@H](CC(C)C)CN1CC2 [(−)-α-dihydrotetrabenazine]
status as metabolite of tetrabenazine in humans [1]: major metabolites; also recorded: main metabolites | Kel [1, 6]: 0.10

COc1cc2c(cc1OC)[C@@H]1C[C@@H](O)[C@@H](CC(C)C)CN1CC2 [(−)-β-dihydrotetrabenazine]
AUC(0-t) [4]: 25.17 ng·h/mL | Cmaxss [4]: 7.78 ng/mL | Cminss [4]: 0.16 ng/mL | Ctss [4]: 0.57 ng/mL | Tmaxss Mean [4]: 97.11 h | status as metabolite of tetrabenazine in humans [1]: minor metabolites | Cmax ([1]; single dose study, tetrabenazine administered to adult male humans): 5.28 ng/mL | area under the curve (AUC) ([1]; single dose study, tetrabenazine administered to adult male humans (unit not given)): 16.28 | AUC(0-inf.) [1, 7]: 18.77 ng·h/mL | AUC(0-t) [1, 7]: 16.28 ng·h/mL | Cmax [1, 7]: 5.28 ng/mL | Extrapolated AUC [1, 7]: 17.66% | Half-life (Mean) [1, 7]: 12.98 h | Tmax Mean [1, 7]: 1.03 h | Kel [1, 6]: 0.45

COc1cc2c(cc1OC)C1CC(O)C(CC(C)C)CN1CC2 (stereo not shown) [dihydrotetrabenazine, 2-hydroxy-3-(2-methylpropyl)-1,3,4,6,7,11b-hexahydro-9,10-dimethoxy-benzo(a)quinolizine]
crossing of the blood-brain barrier [5]: able to cross the blood-brain barrier

α-dihydrotetrabenazine
higher affinity than the β-isomer ([2]; racemic α- versus racemic β-dihydrotetrabenazine, in vitro): 3- to 4 fold

Reference: patent US12521377B2, “Uses of (+)-B-dihydrotetrabenazine in methods of treating movement disorder” (ADEPTIO PHARMACEUTICALS LIMITED, priority 2017, dated 2026)
